Data taken from US7887840B2, “Pharmaceutical compositions comprising drug and concentration-enhancing polymers” (Bend Research, Inc., priority 2001, dated 2011).
Structures can show the parent of a compound that is named as a salt.

Assay: in vitro dissolution test using a microcentrifuge method
Type: physicochemical
Design: AUC / AUC90: concentration or dose not given beside the values
Conditions: for Ziprasidone Concentration: 50 mM MOPS buffer with 150 mM NaCl, pH 7.4, 37° C., supernatant after centrifugation
Experimental: The dissolution of ziprasidone from the complex mixed with various concentration-enhancing polymers was evaluated in an in vitro dissolution test using a microcentrifuge method. […] The polymer amounts are expressed as wt % based on the weight of the complex. […] Ltd., Tokyo, Japan). […] Tests were performed in duplicate. The tubes were placed in a 37° C. temperature-controlled chamber, and 1.8 mL of 50 mM 4-morpholinepropanesulfonic acid (MOPS) buffer with 150 mM NaCl (pH 7.4) was added. The samples were quickly mixed using a vortex mixer for about 60 seconds. […] The resulting supernatant solution was then sampled and diluted 1:4 (by volume) with methanol and then analyzed by high-performance liquid chromatography (HPLC). A Phenomenex Ultracarb 5 ODS HPLC column was used with a mobile phase of 60 vol. % of 0.02 M KH2PO4 (pH 3.0), and 40 vol. % acetonitrile. UV detection was measured at 254 nm. The contents of the tubes were mixed on the vortex mixer and allowed to stand undisturbed at 37° C. until the next sample was taken. […] The concentrations of drug obtained in these samples are shown below. The dissolution of ziprasidone from these complexes mixed with concentration-enhancing polymer was evaluated using the in vitro dissolution test described in the Examples above.

## O=C1Cc2cc(CCN3CCN(c4nsc5ccccc45)CC3)c(Cl)cc2N1 [Example C2, ziprasidone mesylate]
Dissolution AUC 0-90 min, MOPS buffer pH 7.4, 37° C.
  AUC90: 100 µg·min/mL
Dissolution AUC up to 0 min, MOPS buffer pH 7.4, 37° C.
  AUC: 0 µg·min/mL
Dissolution AUC up to 4 min, MOPS buffer pH 7.4, 37° C.
  AUC: 0 µg·min/mL
Dissolution AUC up to 10 min, MOPS buffer pH 7.4, 37° C.
  AUC: 0 µg·min/mL
Dissolution AUC up to 30 min, MOPS buffer pH 7.4, 37° C.
  AUC: 0 µg·min/mL
Dissolution AUC up to 60 min, MOPS buffer pH 7.4, 37° C.
  AUC: 0 µg·min/mL
Dissolution AUC up to 90 min, MOPS buffer pH 7.4, 37° C.
  AUC: 100 µg·min/mL
Maximum ziprasidone concentration within 90 min, MOPS buffer pH 7.4, 37° C.
  Cmax,90: 3000 ng/mL
Time 0 min
  Ziprasidone Concentration: 0 µg/mL
Time 4 min
  Ziprasidone Concentration: 3 µg/mL
Time 10 min
  Ziprasidone Concentration: 1 µg/mL
Time 30 min
  Ziprasidone Concentration: 1 µg/mL
Time 60 min
  Ziprasidone Concentration: 1 µg/mL
Time 90 min
  Ziprasidone Concentration: 1 µg/mL
